# System: NOXs
# Test: NADPH oxidase (NOX) activity assay in platelet lysate
# Type: cell-based, human
# Conditions: convulxin (5 ng/mL)- and collagen (10 μg/mL)-induced; VAS2870 10 μM
# Procedure: MDA, SOD, GPx, and NADPH oxidase activity were measured as previously described ([Krotz et al., 2002]; [Paul et al., 2019]; [Pan et al., 2021]). After incubation and activation, the reaction was stopped by adding 10 mM EGTA. The platelets were pelleted by centrifugation at 20,000 × g for 10 min at 4°C and resuspended in Tyrode’s buffer with 0.1% phosphatase and protease inhibitors (Cat No. 04906837001, Roche Applied Science, Penzberg, Germany; Cat No. P-8340, Sigma, St. Louis, MO, United States). The platelets were disrupted by passing them 10 times through a 29-gauge needle, followed by centrifugation at 2000 × g for 10 min at 4°C to separate the supernatant and precipitate. The detection of MDA, SOD, and GPx in the supernatant was performed according to the kit’s instructions for SOD (Cat No. BC0170, Solarbio Life Science, Beijing, China), MDA (Cat No. S0131S, Beyotime Institute of Biotechnology, Shanghai, China) and GPx (Cat No. S0056, Beyotime Institute of Biotechnology, Shanghai, China). In order to determine NADPH oxidase (NOX) activity, platelet lysate (12.5 μg) was incubated with 10 µM lucigenin and 0.5 mM NADPH at 37°C in the dark. The absorbance values were detected at 450 nm using a spectrophotometer Multiskan FC (ThermoFisher Scientific Inc., Waltham, MA, United States). Protein content was determined by the Bradford method.
structure (smiles),measurement,value
O=c1cc(-c2ccc(O)c(O)c2)oc2cc(O)cc(O)c12 [Luteolin],NOXs activity,significantly decreased
